Reference: BindingDB's records for doi:10.1021/jm801306g (University of Alberta, 2009)

Columns and labels:
Trypanothione reductase [1] = biological target: Trypanothione reductase (Trypanosoma brucei brucei, UniProt P39051); experiment: TryR Enzyme Inhibition Assay
Method: (§1) Inhibition of TryR was carried out in 96-well plates using a Biotek Precision 2000 automated liquid handler. Reaction was initiated by addition of NADPH to the assay mixtures contained TryR , trypanothione disulfide substrate, and inhibitor (100 uM to 10 nM in 3-fold serial dilutions). […] Raw data was processed using Microsoft Excel. Grafit 5.0 (Erithacus software) was used to fit the data to a three-parameter equation to determine IC50 values. IC50 determinations were carried out in triplicate for each compound and the mean weighted to standard error calculated.

Trypanothione reductase [2] = biological target: Trypanothione reductase (Trypanosoma cruzi, UniProt P28593); experiment: TryR Enzyme Inhibition Assay; details: pH 7.5; 22 °C
Method: as §1

Trypanothione reductase (Trypanosoma cruzi, UniProt P28593), sequence (P28593 whole entry): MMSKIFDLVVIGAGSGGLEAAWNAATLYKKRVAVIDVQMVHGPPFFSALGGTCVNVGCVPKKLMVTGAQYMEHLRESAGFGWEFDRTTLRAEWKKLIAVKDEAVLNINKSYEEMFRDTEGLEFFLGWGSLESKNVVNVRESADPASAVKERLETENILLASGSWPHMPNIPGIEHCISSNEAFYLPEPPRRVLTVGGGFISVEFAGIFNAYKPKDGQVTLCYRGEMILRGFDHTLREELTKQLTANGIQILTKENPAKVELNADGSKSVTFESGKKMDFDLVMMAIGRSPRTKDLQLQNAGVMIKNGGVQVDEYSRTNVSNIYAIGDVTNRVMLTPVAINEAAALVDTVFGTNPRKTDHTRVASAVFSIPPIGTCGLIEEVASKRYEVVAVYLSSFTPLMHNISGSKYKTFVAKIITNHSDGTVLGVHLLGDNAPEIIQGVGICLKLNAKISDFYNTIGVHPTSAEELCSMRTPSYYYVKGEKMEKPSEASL
Trypanothione reductase (Trypanosoma brucei brucei, UniProt P39051), sequence (P39051 whole entry): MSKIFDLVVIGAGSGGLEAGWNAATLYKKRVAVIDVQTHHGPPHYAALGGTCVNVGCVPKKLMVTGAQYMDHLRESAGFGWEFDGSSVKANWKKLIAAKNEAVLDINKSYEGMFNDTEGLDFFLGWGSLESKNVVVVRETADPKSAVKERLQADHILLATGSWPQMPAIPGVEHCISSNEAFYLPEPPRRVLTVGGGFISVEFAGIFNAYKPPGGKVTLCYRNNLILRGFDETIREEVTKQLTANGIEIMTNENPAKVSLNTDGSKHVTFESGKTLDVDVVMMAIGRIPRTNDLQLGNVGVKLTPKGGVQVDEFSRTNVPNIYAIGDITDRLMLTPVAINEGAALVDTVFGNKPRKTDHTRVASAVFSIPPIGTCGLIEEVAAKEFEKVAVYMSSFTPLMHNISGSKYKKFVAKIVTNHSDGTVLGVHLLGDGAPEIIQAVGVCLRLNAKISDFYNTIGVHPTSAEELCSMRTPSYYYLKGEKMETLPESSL

SMILES: C[N+]1(Cc2ccccc2)CCC(NC=C2C(=O)NC(=O)N(C3CCCCC3)C2=O)CC1 (configuration not stated) [1-benzyl-4-[(E)-[(1-cyclohexyl-2,4,6-trioxo-1,3-diazinan-5-yl)methylidene]amino]-1-methylpiperidin-1-ium]
- IC50 (Trypanothione reductase [1]): > 100 µM
- IC50 (Trypanothione reductase [2]): 45.2 µM
